What all share (format): biochemical
Assay [1] has as its target 320 wild-type protein kinases (Homo sapiens, UniProt P49336). Conditions: CDK8/CycC, singlicate. From the text: (§1) Table S4. Profiling of two compounds at two concentrations against 320 wild-type protein kinases; singlicate measurement; Residual activities (% of control).
Assay [2] concerns the target T1, 320 wild-type protein kinases (Homo sapiens, UniProt P51955).
T1 sequence (P51955 1-445): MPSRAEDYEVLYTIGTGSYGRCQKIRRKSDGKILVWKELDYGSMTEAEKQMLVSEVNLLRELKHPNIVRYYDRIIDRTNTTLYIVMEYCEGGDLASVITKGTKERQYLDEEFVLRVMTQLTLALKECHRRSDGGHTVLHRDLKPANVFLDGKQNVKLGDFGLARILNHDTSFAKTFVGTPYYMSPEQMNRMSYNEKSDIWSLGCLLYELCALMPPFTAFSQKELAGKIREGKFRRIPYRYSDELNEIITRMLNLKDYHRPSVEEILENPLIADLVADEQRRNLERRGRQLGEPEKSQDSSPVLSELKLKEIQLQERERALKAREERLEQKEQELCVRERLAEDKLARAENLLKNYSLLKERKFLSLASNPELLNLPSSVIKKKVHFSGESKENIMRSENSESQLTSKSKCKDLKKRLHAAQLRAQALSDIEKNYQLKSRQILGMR
Conditions: singlicate.
Source text: as §1

Assay [3] concerns the target 320 wild-type protein kinases (Homo sapiens, UniProt P53355). The note with it: singlicate.
Source text: as §1

For assay [4], the target named is T2, 320 wild-type protein kinases (Homo sapiens, UniProt Q8IWQ3).
T2 sequence (Q8IWQ3 1-736): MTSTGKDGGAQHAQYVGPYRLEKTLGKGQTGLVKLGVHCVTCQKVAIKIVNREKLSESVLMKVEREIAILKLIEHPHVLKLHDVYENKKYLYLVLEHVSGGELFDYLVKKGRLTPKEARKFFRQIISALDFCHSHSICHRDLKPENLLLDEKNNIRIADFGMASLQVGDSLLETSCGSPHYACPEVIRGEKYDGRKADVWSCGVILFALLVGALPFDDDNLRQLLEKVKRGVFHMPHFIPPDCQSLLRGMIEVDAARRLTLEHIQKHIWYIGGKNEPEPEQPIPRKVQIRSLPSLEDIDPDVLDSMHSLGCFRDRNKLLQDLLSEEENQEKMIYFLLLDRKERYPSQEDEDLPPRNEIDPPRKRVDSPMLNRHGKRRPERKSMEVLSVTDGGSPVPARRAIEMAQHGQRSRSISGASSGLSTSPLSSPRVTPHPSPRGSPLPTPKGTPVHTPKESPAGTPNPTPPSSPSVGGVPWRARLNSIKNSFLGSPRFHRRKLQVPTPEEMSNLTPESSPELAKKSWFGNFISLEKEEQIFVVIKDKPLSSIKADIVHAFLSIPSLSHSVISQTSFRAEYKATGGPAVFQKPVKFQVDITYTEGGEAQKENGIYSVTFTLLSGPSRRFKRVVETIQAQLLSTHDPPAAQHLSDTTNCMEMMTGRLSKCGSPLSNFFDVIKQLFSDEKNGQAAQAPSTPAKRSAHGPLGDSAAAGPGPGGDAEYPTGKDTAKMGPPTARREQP
Conditions: singlicate.
Source text: as §1

Assay [5] deals with T3, 320 wild-type protein kinases (Homo sapiens, UniProt Q8TD08).
T3 sequence (Q8TD08 1-544): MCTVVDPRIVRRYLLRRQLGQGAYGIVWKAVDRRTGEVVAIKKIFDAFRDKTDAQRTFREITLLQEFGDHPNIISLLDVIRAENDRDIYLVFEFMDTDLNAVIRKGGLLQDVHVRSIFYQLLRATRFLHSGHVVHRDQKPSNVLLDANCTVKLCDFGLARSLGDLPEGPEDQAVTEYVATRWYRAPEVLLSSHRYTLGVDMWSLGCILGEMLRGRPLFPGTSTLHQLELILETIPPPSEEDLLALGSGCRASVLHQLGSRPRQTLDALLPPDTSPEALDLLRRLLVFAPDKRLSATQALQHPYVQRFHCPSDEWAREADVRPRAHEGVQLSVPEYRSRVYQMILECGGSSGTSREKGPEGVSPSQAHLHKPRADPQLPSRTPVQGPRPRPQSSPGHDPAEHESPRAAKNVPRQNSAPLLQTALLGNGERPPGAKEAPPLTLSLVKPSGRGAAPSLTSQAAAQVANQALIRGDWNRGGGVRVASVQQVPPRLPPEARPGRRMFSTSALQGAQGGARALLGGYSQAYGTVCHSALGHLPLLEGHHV
The note with it: singlicate.
Source text: as §1

Assay [6] concerns the target T4, 320 wild-type protein kinases (Homo sapiens, UniProt Q9NR20).
T4 sequence (Q9NR20 1-520): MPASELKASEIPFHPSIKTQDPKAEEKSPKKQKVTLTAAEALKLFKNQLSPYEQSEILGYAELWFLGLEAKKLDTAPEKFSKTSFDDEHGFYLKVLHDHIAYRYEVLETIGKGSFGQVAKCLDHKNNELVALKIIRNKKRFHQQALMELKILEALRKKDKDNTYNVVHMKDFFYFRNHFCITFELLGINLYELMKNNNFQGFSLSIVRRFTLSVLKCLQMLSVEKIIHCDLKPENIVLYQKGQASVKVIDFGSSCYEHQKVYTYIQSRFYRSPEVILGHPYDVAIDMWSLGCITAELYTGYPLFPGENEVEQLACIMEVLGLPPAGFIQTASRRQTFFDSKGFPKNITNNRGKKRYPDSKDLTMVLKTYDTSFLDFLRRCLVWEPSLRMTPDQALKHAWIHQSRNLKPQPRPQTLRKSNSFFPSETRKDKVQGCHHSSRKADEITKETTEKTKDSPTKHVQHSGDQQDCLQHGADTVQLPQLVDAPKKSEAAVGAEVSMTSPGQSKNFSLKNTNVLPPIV
Conditions: singlicate.
Source text: as §1

Among the data in publication PMC9329436, “Optimization of the 4-anilinoquin(az)oline scaffold as epidermal growth factor receptor (EGFR) inhibitors for chordoma utilizing a toxicology profiling assay platform” (Scientific Reports, 2022) are Residual activity values, retold here.

Like-named read-outs stand apart in the source and are kept apart here.

Chain of 320 wild-type protein kinases (Homo sapiens, UniProt P49336) (P49336 whole entry): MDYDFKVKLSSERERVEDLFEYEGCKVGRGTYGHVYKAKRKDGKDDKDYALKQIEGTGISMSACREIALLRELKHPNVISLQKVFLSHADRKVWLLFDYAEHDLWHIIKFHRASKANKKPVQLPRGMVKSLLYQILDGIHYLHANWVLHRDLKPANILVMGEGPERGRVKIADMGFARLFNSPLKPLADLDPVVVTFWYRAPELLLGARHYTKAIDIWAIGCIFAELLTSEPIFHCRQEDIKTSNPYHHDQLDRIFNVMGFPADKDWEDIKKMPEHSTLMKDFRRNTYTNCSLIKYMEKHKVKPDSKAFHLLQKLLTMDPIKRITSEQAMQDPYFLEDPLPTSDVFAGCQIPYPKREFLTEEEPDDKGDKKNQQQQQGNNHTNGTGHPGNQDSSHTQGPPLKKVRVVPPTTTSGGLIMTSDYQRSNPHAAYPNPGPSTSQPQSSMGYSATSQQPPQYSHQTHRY
Chain of 320 wild-type protein kinases (Homo sapiens, UniProt P53355) (P53355 whole entry): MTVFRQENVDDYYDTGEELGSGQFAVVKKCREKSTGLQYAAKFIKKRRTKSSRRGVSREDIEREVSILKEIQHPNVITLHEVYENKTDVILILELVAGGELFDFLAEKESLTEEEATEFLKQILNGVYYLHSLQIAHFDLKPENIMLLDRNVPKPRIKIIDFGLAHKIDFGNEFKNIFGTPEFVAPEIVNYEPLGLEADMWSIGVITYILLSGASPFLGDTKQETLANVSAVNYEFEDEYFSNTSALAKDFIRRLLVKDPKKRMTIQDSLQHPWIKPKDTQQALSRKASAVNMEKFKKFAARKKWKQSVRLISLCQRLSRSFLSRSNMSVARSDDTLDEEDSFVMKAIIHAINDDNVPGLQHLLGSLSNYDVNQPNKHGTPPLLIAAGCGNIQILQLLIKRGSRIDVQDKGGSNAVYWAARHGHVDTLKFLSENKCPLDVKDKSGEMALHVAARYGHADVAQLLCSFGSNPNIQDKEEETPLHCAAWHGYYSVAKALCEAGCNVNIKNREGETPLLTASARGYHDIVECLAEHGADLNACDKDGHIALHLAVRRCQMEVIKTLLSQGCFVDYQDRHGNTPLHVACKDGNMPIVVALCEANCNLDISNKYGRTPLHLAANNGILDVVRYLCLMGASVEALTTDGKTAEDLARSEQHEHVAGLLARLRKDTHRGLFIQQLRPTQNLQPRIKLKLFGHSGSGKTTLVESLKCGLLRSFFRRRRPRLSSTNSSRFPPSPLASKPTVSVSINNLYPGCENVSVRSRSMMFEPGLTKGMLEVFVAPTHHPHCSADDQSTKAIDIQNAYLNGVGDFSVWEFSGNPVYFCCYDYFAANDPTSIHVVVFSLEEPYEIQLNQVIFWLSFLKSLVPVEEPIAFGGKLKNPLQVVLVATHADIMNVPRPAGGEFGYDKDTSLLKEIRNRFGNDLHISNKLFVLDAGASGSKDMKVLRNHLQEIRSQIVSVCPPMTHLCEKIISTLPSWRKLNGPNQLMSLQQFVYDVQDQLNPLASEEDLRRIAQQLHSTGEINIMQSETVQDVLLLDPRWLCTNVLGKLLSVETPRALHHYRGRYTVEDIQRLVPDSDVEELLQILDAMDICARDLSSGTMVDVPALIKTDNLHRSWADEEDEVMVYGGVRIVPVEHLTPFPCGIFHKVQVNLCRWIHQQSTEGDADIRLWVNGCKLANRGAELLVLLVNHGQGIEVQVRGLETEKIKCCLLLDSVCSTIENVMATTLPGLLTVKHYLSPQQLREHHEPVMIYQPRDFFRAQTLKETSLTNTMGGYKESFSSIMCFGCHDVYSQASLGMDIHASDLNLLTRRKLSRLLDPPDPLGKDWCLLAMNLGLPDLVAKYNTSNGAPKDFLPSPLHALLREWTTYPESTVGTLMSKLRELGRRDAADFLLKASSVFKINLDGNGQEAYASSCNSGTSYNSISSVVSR

For the molecule `C#Cc1cc(Nc2ncnc3cc(OC)c(OC)cc23)ccc1Cl` [Compound 45], the Residual activity is on record as 95 % of control in assay [1] (1.0E-06 M); 97 % of control in assay [1] (1.0E-07 M); 86 % of control in assay [2] (NEK2, 1.0E-06 M); 92 % of control in assay [2] (NEK2, 1.0E-07 M); 116 % of control in assay [3] (DAPK1, 1.0E-06 M); 126 % of control in assay [3] (DAPK1, 1.0E-07 M). Further, the Residual activity in assay [4] (BRSK2, 1.0E-06 M) is on record as 101 % of control; in assay [4] (BRSK2, 1.0E-07 M), 106 % of control; in assay [5] (ERK7, 1.0E-06 M), 90 % of control; in assay [5] (ERK7, 1.0E-07 M), 104 % of control; in assay [6] (DYRK4, 1.0E-06 M) it was 97 % of control; in assay [6] (DYRK4, 1.0E-07 M) it was 116 % of control.
Regarding `C#Cc1cc(Nc2ncnc3cc(I)ccc23)ccc1Cl` [Compound 41], the Residual activity was 92 % of control in assay [1] (1.0E-06 M); 91 % of control in assay [1] (1.0E-07 M); 82 % of control in assay [2] (NEK2, 1.0E-06 M); 96 % of control in assay [2] (NEK2, 1.0E-07 M); 112 % of control in assay [3] (DAPK1, 1.0E-06 M); 125 % of control in assay [3] (DAPK1, 1.0E-07 M). Moreover, the Residual activity in assay [4] (BRSK2, 1.0E-06 M) was 100 % of control; in assay [4] (BRSK2, 1.0E-07 M), 98 % of control; in assay [5] (ERK7, 1.0E-06 M), 96 % of control; in assay [5] (ERK7, 1.0E-07 M) it was 94 % of control; in assay [6] (DYRK4, 1.0E-06 M) it was 96 % of control; in assay [6] (DYRK4, 1.0E-07 M), 99 % of control.
